The values below come from patent US20130030000A1, “PHARMACEUTICAL COMPOSITIONS FOR THE TREATMENT OF PAIN AND OTHER INDICATIONS” (priority 2010, published 2013).

Structures can show the parent of a compound that is named as a salt. Where two headings read alike, the source gives them in different places.

In the experiment the target is T1, Human FAAH (Homo sapiens, UniProt O00519).
T1 construct: The full length FAAH was subcloned into the mammalian expression vector, peDEF.neo
T1 sequence (O00519 1-579): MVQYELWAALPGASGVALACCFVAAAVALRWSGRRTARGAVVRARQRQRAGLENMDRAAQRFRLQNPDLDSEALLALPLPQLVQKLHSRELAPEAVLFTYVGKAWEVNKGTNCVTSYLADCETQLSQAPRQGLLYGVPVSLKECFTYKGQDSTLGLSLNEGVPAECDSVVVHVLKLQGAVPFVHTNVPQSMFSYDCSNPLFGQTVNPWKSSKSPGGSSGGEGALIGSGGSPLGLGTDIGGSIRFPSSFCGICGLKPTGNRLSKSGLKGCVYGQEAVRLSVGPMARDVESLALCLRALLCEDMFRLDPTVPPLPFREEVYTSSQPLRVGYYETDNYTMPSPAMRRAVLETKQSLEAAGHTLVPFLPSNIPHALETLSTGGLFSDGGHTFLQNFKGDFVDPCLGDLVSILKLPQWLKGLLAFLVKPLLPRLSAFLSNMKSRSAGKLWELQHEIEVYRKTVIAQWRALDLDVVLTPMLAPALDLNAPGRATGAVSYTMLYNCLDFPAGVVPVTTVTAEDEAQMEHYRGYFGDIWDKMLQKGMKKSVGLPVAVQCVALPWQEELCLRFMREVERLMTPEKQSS
Nature of the experiment: Human FAAH lysate assay (CHO cell lysate expressing FAAH, AAMCA or 3H-anandamide hydrolysis). Type of experiment: biochemical. From the text: To assist in assay development stable cell lines for human, murine and rat full length FAAH were developed. […] The full length FAAH was subcloned into the mammalian expression vector, peDEF.neo, using XbaI and EcoRI restriction sites and used for stable cell line generation.
CHO cells expressing FAAH were used to prepare either crude cell lysate or microsome fractions. To harvest cells, tissue culture media was decanted, the monolayer washed three times with Ca^++Mg^++ free PBS and cells recovered after […] in enzyme free dissociation media (Millipore Corp, Billerica, Mass.). Cells were collected by centrifuging at 2000 rpm for 15 min. and the cell pellet re-suspended with 50 mM HEPES (pH 7.4) containing 1 mM EDTA and the protease inhibitors aprotinin (1 mg/ml) and leupeptin (100 μM). The suspension was sonicated at 4° C. and the cell lysate recovered after centrifuging at 12,000×g (14,600 rpm, SS34 rotor) for 20 min at 4° C. to form a crude pellet of cell debris, nuclei, peroxisomes, lysosomes, and mitochondria; the supernatant or cell lysate was used for FAAH enzyme assay. In some cases, microsomes fractions enriched in FAAH were prepared by centrifuging the cell lysate further at 27,000 rpm (100,000×g) in SW28 rotor for 50 minutes at 4° C. The pellet containing FAAH-enriched microsomes was re-suspend in 50 mM HEPES, (pH 7,4) 1 mM EDTA, and any remaining DNA sheared by passage of material through a 23 gauge needle and aliquots of enzyme were store at −80° C. prior to use.
Assays are performed on either cell lysate or microsome fractions prepared as described or in whole cell format employing either the fluorescent substrate AAMCA (Cayman chemical, Ann Arbor, Mich.,) or ^3H-anandamide ([ETHANOLAMINE-1-3H] American Radiolabeled Chemicals; 1 mCi/ml). The cell lysate or microsome assay is performed in Costar black wall, clear bottom plates by adding FAAH_CHO (whole cell, cell lysate or microsome) in assay buffer (50 mM Phosphate, pH 8.0, 1 mM EDTA, 200 mM KCl, 0.2% glycerol, 0.1% fatty acid free BSA) to each well, followed by either DMSO or compound and allowed to incubate at 22-25° C. for fifteen minutes. AAMCA substrate was used to achieve a final concentration of 1 μM and reaction allowed to proceed at room temperature for 1-3 hours. […] Whole cell assay is conducted with cells harvested after rinsing tissue culture flasks three times with Ca^++Mg^++ free PBS, incubating for 10 mm in Enzyme free dissociation media and centrifuging for 5 minutes at 1,000 rpm in table top centrifuge. Cells are resuspended in assay buffer at desired cell number in (4×10^4 cells/assay in 96-well format; 1×10^4 cells/assay in 384-well format) and assayed as described.
Alternatively, assays are performed using anandamide [ethanolamine 1-^3H] (specific activity of 10 Ci/mmol) diluted with cold anandamide to achieve a final assay concentration of 1 μM anandamide (˜50,000 cpm). Enzyme (CHO cell lysate, brain or liver homogenate) is incubated in assay buffer (50 mM Phosphate, pH 8.0, 1 mM EDTA, 200 mM KCl, 0.2% glycerol, 0.1% fatty acid free BSA) with inhibitor at 25° C. for 30 minutes. The reaction was terminated by addition of 2 volumes of chloroform:methanol (1:1) and mixed by vortexing. Following a centrifugation step, 2000 rpm for 10 min. at room temperature, the aqueous phase containing the released […] was recovered and quantitated by liquid scintillation as a reflection of FAAH enzyme activity.

The mark [1] stands for this setting: tables of the B series, read-out: hFAAH lysate IC50.
The mark [2] stands for this setting: B series, read-out: Human FAAH lysate assay: IC50.

What is called IC50 is the concentration that inhibits the measured activity by half. Turning to `COc1cnc(Sc2c(-c3ccc([C@H]4C[C@@H]4c4n[nH]c(=O)o4)cc3)ncn2C)nc1` [Example 40B], under setting [1], the IC50 came to 33 nM.

Consider `Cn1cnc(-c2ccc([C@H]3C[C@@H]3c3n[nH]c(=O)o3)cc2)c1Sc1ccc(Cl)cc1` [Example 39B], for which the IC50 under setting [1] turned out to be 24 nM.

In the case of `Cn1nnc([C@H]2C[C@@H]2c2ccc(-c3ncn(C)c3Sc3ccc(Cl)cn3)cc2)n1` [Example 38B, 5-chloro-2-[(1-methyl-4-{4-[(1 S,2S)-2-(2-methyl-2H-tetrazol-5-yl)cyclopropyl]phenyl}-1H-imidazol-5-yl)thio]pyridine], under setting [2], the IC50 was found to be 37 nM.

On to `Cn1cnc(-c2ccc([C@H]3C[C@@H]3c3n[nH]c(=O)o3)cc2)c1Sc1ccc(F)cc1F` [Example 41B], for which, under setting [1], the IC50 worked out at 1.3 nM.

Regarding `CN(C)C(=O)[C@H]1C[C@@H]1c1ccc(-c2ncn(C)c2Sc2ccc(Cl)cn2)cc1` [Example 5B, (1S,2S)-2-(4-{5-[(5-Chloropyridin-2-yl)thio]-1-methyl-1H-imidazol-4-yl}phenyl)-N,N-dimethylcyclopropanecarboxamide], the IC50 under setting [2] turned out to be 1 nM.

As for `CC(C)NC(=O)C1CC1c1ccc(-c2ncn(C)c2Sc2ccc(Cl)cn2)cc1` (centres unmarked) [Example 2B], under setting [1], the 50% inhibitory concentration (IC50) came out at 6.3 nM.

`Cn1cnc(-c2ccc([C@H]3C[C@@H]3CO)cc2)c1Sc1ccc(Cl)cn1` [Example 23B, [(1S,2S)-2-(4-{5-[(5-Chloropyridin-2-yl)thio]-1-methyl-1H-imidazol-4-yl}phenyl)cyclopropyl]methanol]: the IC50 under setting [2] was determined as 88.4 nM.

Consider `CN(C)C(=O)[C@H]1C[C@@H]1c1ccc(-c2ncn(CCF)c2Sc2ccc(Cl)cn2)cc1` [Example 14B, 5-[(5-Chloropyridin-2-yl)thio]-4-(4-{(1S,2S)-2-[(dimethylamino)carbonyl]cyclopropyl}phenyl)-1-(2-fluoroethyl)-1H-imidazol-3-ium trifluoroacetate], for which the IC50 under setting [2] came out at 3.2 nM.

`Cn1cnc(-c2ccc([C@H]3C[C@@H]3c3ncon3)cc2)c1Sc1ccc(Cl)cn1` [Example 35B, 5-chloro-2-[(1-methyl-4-{4-[(1S,2S)-2-(1,2,4-oxadiazol-3-yl)cyclopropyl]phenyl}-1H-imidazol-5-yl)thio]pyridine]: under setting [2], the IC50 stood at 58.4 nM.

Turning to `Cn1cnc(-c2ccc([C@H]3C[C@@H]3c3noc(=O)[nH]3)cc2)c1Sc1ccc(Cl)cn1` [Example 36B, 5-[(5-chloropyridin-2-yl)thio]-1-methyl-4-{4-[(1S,2S)-2-(5-oxo-4,5-dihydro-1,2,4-oxadiazol-3-yl)cyclopropyl]phenyl}-1H-imidazol-3-ium trifluoroacetate], under setting [2], the half-maximal inhibitory concentration (IC50) worked out at 95.4 nM.

Turning to `Cn1cnc(-c2ccc([C@H]3C[C@@H]3c3n[nH]c(=S)o3)cc2)c1Sc1ccc(Cl)cn1` [Example 31B, 5-[(1S,2S)-2-(4-{5-[(5-chloropyridin-2-yl)thio]-1-methyl-1H-imidazol-4-yl}phenyl)cyclopropyl]-1,3,4-oxadiazole-2(3H)-thione], under setting [2], the IC50 came out at 677 nM.

For the molecule `Cn1cnc(-c2ccc([C@H]3C[C@@H]3c3n[nH]c(=O)[nH]3)cc2)c1Sc1ccc(Cl)cn1` [Example 33B, 5-[(1S,2S)-2-(4-{5-[(5-chloropyridin-2-yl)thio]-1-methyl-1H-imidazol-4-yl}phenyl)cyclopropyl]-2,4-dihydro-3H-1,2,4-triazol-3-one], under setting [2], the IC50 worked out at 545 nM.

As for `Cn1cnc(-c2ccc([C@H]3C[C@@H]3C(C)(C)O)cc2)c1Sc1ccc(Cl)cn1` [Example 22B, 2-[(1S,2S)-2-(4-{5-[(5-Chloropyridin-2-yl)thio]-1-methyl-1H-imidazol-4-yl}phenyl)cyclopropyl]propan-2-ol], under setting [2], the 50% inhibitory concentration (IC50) was 8.7 nM.

With `Cc1nc(-c2ccc([C@@H]3C[C@H]3C(=O)N(C)C)cc2)c(Sc2ccc(Cl)cn2)n1C` [Example 12B, (1R,2R)-2-(4-{5-[(5-Chloropyridin-2-yl)thio]-1,2-dimethyl-1H-imidazol-4-yl}phenyl)-N,N-dimethylcyclopropanecarboxamide], the IC50 under setting [2] was found to be 13.6 nM.

Consider `Cn1cnc(-c2ccc([C@H]3C[C@@H]3C(=O)NC(C)(C)C)cc2)c1Sc1ccc(Cl)cn1` [Example 8B], for which the half-inhibitory concentration (IC50) under setting [1] is 196 nM.

Regarding `Cn1cnc(-c2ccc([C@H]3C[C@@H]3C(=O)NCCF)cc2)c1Sc1ccc(Cl)cn1` [Example 1013, (1S,2S)-2-(4-{5-[(5-Chloropyridin-2-yl)thio]-1-methyl-1H-imidazol-4-yl}phenyl)-N-(2-fluoroethyl)cyclopropanecarboxamide], the IC50 under setting [2] stood at 1.5 nM.

Regarding `Cn1cnc(-c2ccc(C3CC3C(N)=O)cc2)c1Sc1ccc(Cl)cn1` (centres unmarked) [Example 4B], under setting [1], the IC50 was 2.6 nM.

Consider `Cn1cnc(-c2ccc([C@H]3C[C@@H]3c3n[nH]c(=O)o3)cc2)c1Sc1ccc(Cl)cn1` [Example 17B, 5-[(1S,2S)-2-(4-{5-[(5-Chloropyridin-2-yl)thio]-1-methyl-1H-imidazol-4-yl}phenyl)cyclopropyl]-1,3,4-oxadiazol-2(3H)-one], for which the IC50 under setting [2] came out at 4.5 nM.

For `NC(=O)[C@H]1C[C@@H]1c1ccc(-c2ncn(CCF)c2Sc2ccc(Cl)cn2)cc1` [Example 16B], the IC50 under setting [1] worked out at 12.7 nM.

Regarding `CN(C)C(=O)C1CC1c1ccc(-c2ncn(C)c2Sc2ccc(Cl)cn2)cc1` (centres unmarked) [Example 1B, 2-(4-{5[(5-Chloropyridin-2yl-)thio]-1-methyl-1H-imidazol-4-yl}phenyl)-N,N-dimethylcyclopropanecarboxamide], under setting [2], the IC50 is 1.4 nM.

`CNC(=O)[C@H]1C[C@@H]1c1ccc(-c2ncn(CCF)c2Sc2ccc(Cl)cn2)cc1` [Example 15B]: the IC50 under setting [1] worked out at 5.8 nM.

Regarding `CNC(=O)[C@H]1C[C@@H]1c1ccc(-c2ncn(C)c2Sc2ccc(Cl)cn2)cc1` [Example 6B], the IC50 under setting [1] came to 1.1 nM.

On to `COc1nnc([C@H]2C[C@@H]2c2ccc(-c3ncn(C)c3Sc3ccc(Cl)cn3)cc2)o1` [Example 18B, 5-Chloro-2-[(4-{4-[(1S,2S)-2-(5-methoxy-1,3,4-oxadiazol-2-yl)cyclopropyl]phenyl}-1-methyl-1H-imidazol-5-yl)thio]pyridine], for which the IC50 under setting [2] was determined as 15.6 nM.

For the molecule `Cn1cnc(-c2ccc([C@H]3C[C@@H]3c3nn[nH]n3)cc2)c1Sc1ccc(Cl)cn1` [Example 37B, 5-[(5-chloropyridin-2-yl)thio]-1-methyl-4-{4-[(1S,2S)-2-(2H-tetrazol-5-yl)cyclopropyl]phenyl}-1H-imidazol-3-ium trifluoroacetate], the IC50 under setting [2] came out at 167 nM.

Turning to `Cn1cnc(-c2ccc([C@H]3C[C@@H]3c3n[nH]c(=O)o3)cc2)c1Sc1ccc(Cl)cc1F` [Example 42B], the IC50 under setting [1] was found to be 1.8 nM.

For the molecule `Cn1cnc(-c2ccc([C@H]3C[C@@H]3c3nn(C)c(=O)o3)cc2)c1Sc1ccc(Cl)cn1` [Example 3013, 5-[(1S,2S)-2-(4-{5-[(5-chloropyridin-2-yl)thio]-1-methyl-1H-imidazol-4-yl}phenyl)cyclopropyl]-3-methyl-1,3,4-oxadiazol-2(3H)-one], the IC50 under setting [2] turned out to be 171 nM.
